Where two headings read alike, the source gives them in different places.
Tests used:
[1] = tested on: A/H1N1 strain A/New Jersey/8/76; format: in vivo, human
huCAR19 CAR T cells = assay: CAR T cell expansion in vivo in NSG mice with NALM6-luc tumors (FACS); conditions: lowest doses of RAD001, daily oral; more evident and prolonged with CD4+ than CD8+ CAR T cells
B/Brisbane/60/2008 = assay: Hemagglutination inhibition titers after seasonal influenza vaccination, B vaccine strain; format: in vivo, human; conditions: for HI GMT B, Baseline: 2 weeks prior to influenza vaccination; for HI GMT B, Week 4: 4 weeks after influenza vaccination
Protocol: (§1) The trial was observer-blind because the placebo in the RAD001 0.5 mg daily and 20 mg weekly cohorts differed slightly from the RAD001 tablets in those cohorts. […] The treatment duration for all cohorts was 6 weeks during which time subjects underwent safety evaluations in the clinic every 2 weeks. After subjects had been dosed for 4 weeks, RAD001 steady state levels were measured pre-dose and at one hour post dose. After completing the 6 week course of study drug, subjects were given a 2 week drug free break to reverse any possible RAD001-induced immunosuppression, and then were given a 2012 seasonal influenza vaccination (Agrippal®, Novartis Vaccines and Diagnostics, Siena, Italy) containing the strains H1N1 A/California/07/2009, H3N2 A/Victoria/210/2009, B/Brisbane/60/2008. Four weeks after influenza vaccination, subjects had serum collected for influenza titer measurements. Antibody titers to the 3 influenza vaccine strains as well as to 2 heterologous strains (A/H1N1 strain A/New Jersey/8/76 and A/H3N2 strain A/Victoria/361/11) were measured by standard hemagglutination inhibition assay (Kendal, A P et al. (1982) Concepts and procedures for laboratory-based influenza surveillance. Atlanta: Centers for Disease Control and Prevention B17-B35). Levels of IgG and IgM specific for the A/H1N1/California/07/2009 were measured in serum samples taken before and 4 weeks after influenza vaccination as described previously (Spensieri, F. et al. (2013) Proc. Natl. Acad. Sci. USA 110:14330-14335). Results were expressed as fluorescence intensity.
(§2) The primary analysis of geometric mean titer ratios was done using a normal Bayesian regression model with non-informative priors. This model was fitted to each antibody titer on the log scale. The primary outcome in each model was the Day 84 measurement. The Day 63 measurement was included in the outcome vector. The model fitted using SAS 9.2 proc mixed with the prior statement. The covariance structure of the matrix was considered as unstructured (option type=UN). A flat prior was used. For the secondary analysis of seroconversion rates, logistic regression was used.
(§3) The ability of RAD001 to improve immune function in elderly volunteers was evaluated by measuring the serologic response to the 2012 seasonal influenza vaccine. The hemagglutination inhibition (HI) geometric mean titers (GMT) to each of the 3 influenza vaccine strains at baseline and 4 weeks after influenza vaccination are provided in Table 6. The primary analysis variable was the HI GMT ratio (4 weeks post vaccination/baseline).
(§4) Rates of seroconversion 4 weeks after influenza vaccination were also evaluated. Seroconversion was defined as the change from a negative pre-vaccination titer (i.e., HI titer <1:10) to post-vaccination HI titer ≧1:40 or at least 4-fold increase from a non-negative (≧1:10) pre-vaccination HI titer.

H3N2 A/Victoria/210/2009 = assay: Hemagglutination inhibition titers after seasonal influenza vaccination, A/H3N2 vaccine strain; format: in vivo, human; conditions: for HI GMT A/H3N2, Baseline: 2 weeks prior to influenza vaccination; for HI GMT A/H3N2, Week 4: 4 weeks after influenza vaccination
Protocol: as §1, §2, §3, §4

[2] = tested on: H1N1 A/California/07/2009; assay: Hemagglutination inhibition titers after seasonal influenza vaccination, A/H1N1 vaccine strain; format: in vivo, human; conditions: for HI GMT A/H1N1, Baseline: 2 weeks prior to influenza vaccination; for HI GMT A/H1N1, Week 4: 4 weeks after influenza vaccination
Protocol: as §1, §2, §3, §4

[3] = tested on: CAR-expressing, transduced T cells; assay: CART co-culture with NALM6 cells in presence of RAD001; conditions: low doses of RAD001, 4 days
[4] = human, in vivo
[5] = Intention to Treat Population, 0.5 mg, N = 48
[6] = Intention to Treat Population, 5 mg, N = 49
[7] = Intention to Treat Population, 20 mg, N = 48
[8] = Subjects with Baseline Titers <=40, 5 mg
[9] = Subjects with Baseline Titers <=40, 20 mg
[10] = Subjects with Baseline Titers <=40, 0.5 mg

CO[C@H]1C[C@@H]2CC[C@@H](C)[C@@](O)(O2)C(=O)C(=O)N2CCCC[C@H]2C(=O)O[C@H]([C@H](C)C[C@@H]2CC[C@@H](OCCO)[C@H](OC)C2)CC(=O)[C@H](C)/C=C(\C)[C@@H](O)[C@@H](OC)C(=O)[C@H](C)C[C@H](C)/C=C/C=C/C=C/1C [RAD001, (1R,9S,12S,15R,16E,18R,19R,21R,23S,24E,26E,28E,30S,32S,35R)-1,18-dihydroxy-12-{(1R)-2-[(1S,3R,4R)-4-(2-hydroxyethoxy)-3-methoxycyclohexyl]-1-methylethyl}-19,30-dimethoxy-15,17,21,23,29,35-hexamethyl-11,36-dioxa-4-aza-tricyclo[30.3.1.04,9]hexatriaconta-16,24,26,28-tetraene-2,3,10,14,20-pentaone]
Percentage of subjects who seroconvert to heterologous A/H1N1 strain A/NewJersey/8/76 4 weeks after seasonal influenza vaccination ([1]; 0.5 mg daily): 17% | Percentage of subjects who seroconvert to heterologous A/H1N1 strain A/NewJersey/8/76 4 weeks after seasonal influenza vaccination ([1]; 5 mg weekly): 16% | Percentage of subjects who seroconvert to heterologous A/H1N1 strain A/NewJersey/8/76 4 weeks after seasonal influenza vaccination ([1]; 20 mg weekly): 8% | Increase in the HI GMT ratio for the heterologous strain ([1]; RAD001 vs placebo cohorts): higher in the RAD001 as compared to placebo cohorts | Proliferation of the CAR T cells in vivo (huCAR19 CAR T cells): enhanced proliferation | HI GMT ratio B (week 4 post vaccination/baseline) (B/Brisbane/60/2008; 0.5 mg daily, N = 50): 2.5 | HI GMT B, Baseline (B/Brisbane/60/2008; 0.5 mg daily, N = 50): 44.2 | HI GMT B, Week 4 (B/Brisbane/60/2008; 0.5 mg daily, N = 50): 98.4 | HI GMT ratio B (week 4 post vaccination/baseline) (B/Brisbane/60/2008; 5 mg weekly, N = 49): 2.2 | HI GMT B, Baseline (B/Brisbane/60/2008; 5 mg weekly, N = 49): 64.8 | HI GMT B, Week 4 (B/Brisbane/60/2008; 5 mg weekly, N = 49): 117.3 | HI GMT ratio B (week 4 post vaccination/baseline) (B/Brisbane/60/2008; 20 mg weekly, N = 49): 2.1 | HI GMT B, Baseline (B/Brisbane/60/2008; 20 mg weekly, N = 49): 58.0 | HI GMT B, Week 4 (B/Brisbane/60/2008; 20 mg weekly, N = 49): 99.2 | Percent of subjects with seroconversion to influenza B 4 weeks after vaccination (B/Brisbane/60/2008; [5]): 27% | Percent of subjects with seroconversion to influenza B 4 weeks after vaccination (B/Brisbane/60/2008; [6]): 22% | Percent of subjects with seroconversion to influenza B 4 weeks after vaccination (B/Brisbane/60/2008; [7]): 19% | Percent of subjects with seroconversion to influenza B 4 weeks after vaccination (B/Brisbane/60/2008; Subjects with Baseline Titers <=40, 0.5 mg, * p < 0.05 vs placebo): 40* Percent | Percent of subjects with seroconversion to influenza B 4 weeks after vaccination (B/Brisbane/60/2008; [8]): 33% | Percent of subjects with seroconversion to influenza B 4 weeks after vaccination (B/Brisbane/60/2008; [9]): 28% | HI GMT ratio A/H3N2 (week 4 post vaccination/baseline) (H3N2 A/Victoria/210/2009; 0.5 mg daily, N = 50): 2.1 | HI GMT A/H3N2, Baseline (H3N2 A/Victoria/210/2009; 0.5 mg daily, N = 50): 106.8 | HI GMT A/H3N2, Week 4 (H3N2 A/Victoria/210/2009; 0.5 mg daily, N = 50): 194.4 | HI GMT ratio A/H3N2 (week 4 post vaccination/baseline) (H3N2 A/Victoria/210/2009; 5 mg weekly, N = 49): 2.0 | HI GMT A/H3N2, Baseline (H3N2 A/Victoria/210/2009; 5 mg weekly, N = 49): 126.04 | HI GMT A/H3N2, Week 4 (H3N2 A/Victoria/210/2009; 5 mg weekly, N = 49): 223.0 | HI GMT ratio A/H3N2 (week 4 post vaccination/baseline) (H3N2 A/Victoria/210/2009; 20 mg weekly, N = 49): 2.1 | HI GMT A/H3N2, Baseline (H3N2 A/Victoria/210/2009; 20 mg weekly, N = 49): 137.1 | HI GMT A/H3N2, Week 4 (H3N2 A/Victoria/210/2009; 20 mg weekly, N = 49): 223.0 | Percent of subjects with seroconversion to influenza H3N2 4 weeks after vaccination (H3N2 A/Victoria/210/2009; [5]): 27% | Percent of subjects with seroconversion to influenza H3N2 4 weeks after vaccination (H3N2 A/Victoria/210/2009; [6]): 24% | Percent of subjects with seroconversion to influenza H3N2 4 weeks after vaccination (H3N2 A/Victoria/210/2009; [7]): 25% | Percent of subjects with seroconversion to influenza H3N2 4 weeks after vaccination (H3N2 A/Victoria/210/2009; [10]): 64% | Percent of subjects with seroconversion to influenza H3N2 4 weeks after vaccination (H3N2 A/Victoria/210/2009; [8]): 53% | Percent of subjects with seroconversion to influenza H3N2 4 weeks after vaccination (H3N2 A/Victoria/210/2009; [9]): 71% | HI GMT ratio A/H1N1 (week 4 post vaccination/baseline) ([2]; 0.5 mg daily, N = 50): 2.6 | HI GMT A/H1N1, Baseline ([2]; 0.5 mg daily, N = 50): 102.8 | HI GMT A/H1N1, Week 4 ([2]; 0.5 mg daily, N = 50): 190.2 | HI GMT ratio A/H1N1 (week 4 post vaccination/baseline) ([2]; 5 mg weekly, N = 49): 2.5 | HI GMT A/H1N1, Baseline ([2]; 5 mg weekly, N = 49): 84.2 | HI GMT A/H1N1, Week 4 ([2]; 5 mg weekly, N = 49): 198.73 | HI GMT ratio A/H1N1 (week 4 post vaccination/baseline) ([2]; 20 mg weekly, N = 49): 1.8 | HI GMT A/H1N1, Baseline ([2]; 20 mg weekly, N = 49): 90.1 | HI GMT A/H1N1, Week 4 ([2]; 20 mg weekly, N = 49): 129.7 | Percent of subjects with seroconversion to influenza H1N1 4 weeks after vaccination [2, 5]: 27% | Percent of subjects with seroconversion to influenza H1N1 4 weeks after vaccination [2, 6]: 27% | Percent of subjects with seroconversion to influenza H1N1 4 weeks after vaccination [2, 7]: 17% | Percent of subjects with seroconversion to influenza H1N1 4 weeks after vaccination [2, 10]: 42% | Percent of subjects with seroconversion to influenza H1N1 4 weeks after vaccination [2, 8]: 45% | Percent of subjects with seroconversion to influenza H1N1 4 weeks after vaccination [2, 9]: 36% | proliferation of CAR-expressing, transduced T cells [3]: enhanced | Deaths during the study [4]: No deaths occurred | Incidence of treatment-related AE: Blood cholesterol increased [4]: 2 (3.8%) n (%) | Most common RAD001-related AE [4]: mouth ulcer | Tolerability [4]: well tolerated
